Where two headings read alike, the source gives them in different places. Numbered stars: 1 amine (or outer) side, 2 acyl side, 3 side chain; on linkers, the order of the positions; unused ones are H or OH. Bridge positions count the residues as written; N and C are the ends. Square brackets hold non-standard residues; d marks the D form. Peptide text beside a SMILES is read from it. * marks the point of attachment. X1 = NC(=O)CC(O)C(N[*:1])C(=O)[*:2]; NMeF = CN[CH](Cc1ccccc1)C(=O)O; NMeN = CN[CH](CC(N)=O)C(=O)O; X2 = CCC(C)CCCCCCCCCCC(=O)*
Key:
Zymoseptoria tritici [1] = assay: Liquid culture, Zymoseptoria tritici (Septoria tritici), Septoria leaf blotch, 4-5 days; type: cell-based; details: Zymoseptoria tritici, read-out: % reduction fungal growth
Protocol: (§1) Mycelia fragments or conidia suspensions of a fungus, prepared either freshly from liquid cultures of the fungus or from cryogenic storage, were directly mixed into nutrient broth.
(§2) A stock solution for compound of Formula I(a) and Formula I(b) was produced in DMSO (max. 10 mg/ml), which was diluted with water plus 0.025% Tween®20 to produce a 10× concentrated sample and 10 μl of this solution was pipetted into a microtiter plate (96-well format). The nutrient broth containing the fungal spores/mycelia fragments was then added to give an end concentration of the tested compound. The test plates were incubated in the dark at 24 °C and 96% rh. The inhibition of fungal growth was determined photometrically after 2-7 days, depending on the pathosystem, and percent antifungal activity relative to the untreated check was calculated.
(§3) The effect of the test compound (Formula I(a), I(b) and Lipopeptin A) was tested against the following fungi under the conditions as outlined above and specifically herein below:
Zymoseptoria tritici (Septoria tritici)/liquid culture (Septoria leaf blotch) Conidia of the fungus from cryogenic storage were directly mixed into nutrient broth (PDB potato dextrose broth). The inhibition of growth was determined photometrically 4-5 days after application.

[2] = tested on: ROS production induced by flg22; assay: Reactive Oxygen Species (ROS) burst assay with wheat leaf discs; details: Triticum aestivum, foliar
Glomerella lagenarium = assay: Liquid culture, Glomerella lagenarium (Colletotrichum lagenarium), Anthracnose, 3-4 days; type: cell-based; details: Colletotrichum orbiculare, read-out: % reduction fungal growth
Protocol: as §1, §2, §3
Glomerella lagenarium (Colletotrichum lagenarium)/Liquid Culture (Anthracnose)
Conidia of the fungus from cryogenic storage were directly mixed into nutrient broth (PDB potato dextrose broth). The inhibition of growth was measured photometrically 3-4 days after application.

Phaeosphaeria nodorum = assay: Leaf disc test on wheat, Phaeosphaeria nodorum (Glume Blotch), 5-7 days after application; type: in vivo, Phaeosphaeria nodorum (Septoria nodorum) on wheat; details: Table 5
Protocol: (§4) Leaf disks or leaf segments of various plant species were cut from plants grown in the greenhouse. The cut leaf disks, or segments were placed in multiwell plates (24-well format) onto water agar. The leaf disks were sprayed with a test solution before inoculation with the fungal spores. Compounds to be tested were prepared as DMSO solutions (max. 10 mg/ml) which were diluted to the appropriate concentration with water plus 0.025% Tween® 20 just before spraying. The inoculated leaf disks or segments were incubated under defined conditions (temperature, relative humidity, light, etc.) according to the respective test system. A single evaluation of disease level was carried out by visual evaluation 3-9 days days after inoculation, depending on the pathosystem as indicated below. Percent disease control relative to the untreated check leaf disks or segments was then calculated.
Phaeosphaeria Nodorum (Septoria nodorum)/Wheat/Leaf Disc (Glume Blotch)
Wheat leaf segments cv. Kanzler were placed on agar in a multiwell plate (24-well format) and sprayed with the formulated test compound diluted in water. The leaf disks were inoculated with a spore suspension of the fungus 2 days after application. The inoculated test leaf disks were incubated at 20 °C and 75% rh under a light regime of 12 h light/12 h darkness in a climate cabinet and the activity of a compound was assessed as percent disease control compared to untreated when an appropriate level of disease damage appears in untreated check leaf disks (5-7 days after application)

several fungal species = assay: Leaf disc or leaf segment tests, summary over the fungi tested; type: in vivo; details: up to; Tables 4 and 5
Protocol: as §4

Sclerotinia sclerotiorum = assay: Liquid culture 96-well mixture assay with malonomicin, Sclerotinia sclerotiorum, 72 hrs; type: cell-based; details: line H malonomicin alone, concentrations in Table 8
Protocol: (§5) A stock solution for compound of Formula I(a) was produced in DMSO (max. 10 mg/ml). Malonomicin was produced according to Law et al, 2018 (Nature Catalys is |VOL 1|DECEMBER 2018|977-984). A stock solution of malonomicin was produced in water plus 0.025% Tween® 20.
(§6) Assays to test efficacy of mixtures of the lipopeptide compound of Formula I(a) in combination with malonomicin on the control of fungal pathogens in a liquid culture assay were designed for a 96well plate as outlined in table 1:
(§7) The 96 well plate design allows to compare disease control of the mixture with disease control of the respective single compound at the same rate.
(§8) A master plate with 10× concentrated solution of the compound stock solutions diluted in water plus 0.025% Tween® 20 was prepared. The concentration of DMSO (from the stock of compound of Formula (a)) and Tween® 20 was kept constant in all cells of the master plate. 10 μl was transferred from the master plate to a 96well test plate. The nutrient broth containing the fungal spores/mycelia fragments was then added to the test plate to give an end concentration of 1× for the tested compounds (as outlined in Table 8). The test plates were incubated in the dark at 24 °C and 96% rh. The inhibition of fungal growth was determined photometrically after ca 3 days, and percent fungal growth reduction relative to the untreated check was calculated.
Sclerotinia sclerotiorum (EPPO Code: SCLESC)
Mycelial fragments of the fungus prepared from a fresh liquid culture were directly mixed into nutrient broth (PDB: potato dextrose broth).

Zymoseptoria tritici [3] = assay: Liquid culture 96-well mixture assay with malonomicin, Zymoseptoria tritici, 72 hrs; type: cell-based; details: read-out: control of fungal growth (% reduction)
Protocol: as §5, §6, §7, §8
Zymoseptoria tritici (EPPO Code: SEPTTR)
Conidia of the fungus from cryogenic storage were directly mixed into nutrient broth (PDB: potato dextrose broth).

[4] = read-out: Fold change (peak ROS)

## CCC(C)CCCCCCCCCCC(=O)NC1C(=O)NC(CC(=O)O)C(=O)NC(C(O)CC(N)=O)C(=O)NC(CO)C(=O)N(C)C(CC(N)=O)C(=O)N(C)C(Cc2ccccc2)C(=O)NC(CCC(N)=O)C(=O)NC(CCC(=O)O)C(=O)OC1C (stereo not shown) [Formula I(b)] (X2-TD[X1]S[NMeN][NMeF]QE; ester 1-C; configuration not given here)
Zymoseptoria tritici [1]; Table 2
  inhibition of growth at 0.41 ppm: 0%
  inhibition of growth at 1.2 ppm: 0%
  inhibition of growth at 3.7 ppm: 0%
  inhibition of growth at 11 ppm: 50%
  inhibition of growth at 33 ppm: 70%
  inhibition of growth at 100 ppm: 70%
Zymoseptoria tritici [1]; Table 3
  inhibition of growth at 0.41 ppm: 0%
  inhibition of growth at 1.2 ppm: 0%
  inhibition of growth at 3.7 ppm: 0%
  inhibition of growth at 11 ppm: 90%
  inhibition of growth at 33 ppm: 90%
  inhibition of growth at 100 ppm: 90%
[2]; [4]
  fold induction at 1 ppm: 1.2
  fold induction at 25 ppm: 1.3
  fold induction at 100 ppm: 3
[2]; read-out: increase of ROS production induced by flg22 (factor)
  fold induction at 100 ppm: ≥ 2.7
Glomerella lagenarium; Table 2
  inhibition of growth at 0.41 ppm: 0%
  inhibition of growth at 1.2 ppm: 0%
  inhibition of growth at 3.7 ppm: 0%
  inhibition of growth at 11 ppm: 0%
  inhibition of growth at 33 ppm: 0%
  inhibition of growth at 100 ppm: 0%
Glomerella lagenarium; Table 3
  inhibition of growth at 0.41 ppm: 0%
  inhibition of growth at 1.2 ppm: 0%
  inhibition of growth at 3.7 ppm: 0%
  inhibition of growth at 11 ppm: 0%
  inhibition of growth at 33 ppm: 0%
  inhibition of growth at 100 ppm: 0%
Phaeosphaeria nodorum; 0.82 ppm
  % reduction of fungal growth: 0%
Phaeosphaeria nodorum; 2.5 ppm
  % reduction of fungal growth: 0%
Phaeosphaeria nodorum; 7.4 ppm
  % reduction of fungal growth: 0%
Phaeosphaeria nodorum; 22 ppm
  % reduction of fungal growth: 0%
Phaeosphaeria nodorum; 67 ppm
  % reduction of fungal growth: 0%
Phaeosphaeria nodorum; 200 ppm
  % reduction of fungal growth: 0%
Several fungal species
  reduction of fungal growth: up to 95%

## NC[C@@H]1NC(=O)C(C(=O)CC(NC(=O)[C@@H](N)CO)(C(=O)O)C(=O)O)=C1O [malonomicin, {[(2S)-2-amino-3-hydroxypropanoyl]amino}{2-[(5S)-5-(aminomethyl)-4-hydroxy-2-oxo-2,5-dihydro-1H-pyrrol-3-yl]-2-oxoethyl}malonic acid]
Sclerotinia sclerotiorum; plate column (2), highest malonomicin concentration, lines A-G with compound of Formula I(a) dilution series
  control of fungal growth (% reduction of growth in the test well as compared to untreated check): 90%
Sclerotinia sclerotiorum; plate column (3) of malonomicin dilution series, lines A-G with compound of Formula I(a)
  control of fungal growth (% reduction of growth in the test well as compared to untreated check): 90%
Sclerotinia sclerotiorum; plate column (4) of malonomicin dilution series, lines A-G with compound of Formula I(a)
  control of fungal growth (% reduction of growth in the test well as compared to untreated check): 90%
Sclerotinia sclerotiorum; plate column (5) of malonomicin dilution series, lines A-G with compound of Formula I(a)
  control of fungal growth (% reduction of growth in the test well as compared to untreated check): 70%
Sclerotinia sclerotiorum; plate column (6) of malonomicin dilution series, lines A-G with compound of Formula I(a)
  control of fungal growth (% reduction of growth in the test well as compared to untreated check): 50%
Sclerotinia sclerotiorum; plate column (7) of malonomicin dilution series, lines A-G with compound of Formula I(a)
  control of fungal growth (% reduction of growth in the test well as compared to untreated check): 20%
Sclerotinia sclerotiorum; plate column (8) of malonomicin dilution series, lines A-G with compound of Formula I(a)
  control of fungal growth (% reduction of growth in the test well as compared to untreated check): 0%
Sclerotinia sclerotiorum; plate column (9) of malonomicin dilution series, lines A-G with compound of Formula I(a)
  control of fungal growth (% reduction of growth in the test well as compared to untreated check): 0%
Sclerotinia sclerotiorum; plate column (10) of malonomicin dilution series, lines A-G with compound of Formula I(a)
  control of fungal growth (% reduction of growth in the test well as compared to untreated check): 0%
Sclerotinia sclerotiorum; plate column (11), lowest malonomicin concentration, lines A-G with compound of Formula I(a)
  control of fungal growth (% reduction of growth in the test well as compared to untreated check): 0%
Zymoseptoria tritici [3]; malonomicin 1.00 ppm
  inhibition of growth at 1 ppm: 0%
Zymoseptoria tritici [3]; malonomicin 3.00 ppm
  inhibition of growth at 3 ppm: 0%
Zymoseptoria tritici [3]; malonomicin 7.81 ppm
  inhibition of growth at 7.81 ppm: 0%
Zymoseptoria tritici [3]; malonomicin 15.63 ppm
  inhibition of growth at 15.63 ppm: 20%
Zymoseptoria tritici [3]; malonomicin 31.25 ppm
  inhibition of growth at 31.25 ppm: 20%
Zymoseptoria tritici [3]; malonomicin 62.5 ppm
  inhibition of growth at 62.5 ppm: 50%
Zymoseptoria tritici [3]; malonomicin 125 ppm
  inhibition of growth at 125 ppm: 70%
Zymoseptoria tritici [3]; malonomicin 250 ppm
  inhibition of growth at 250 ppm: 70%
Zymoseptoria tritici [3]; malonomicin 500 ppm
  inhibition of growth at 500 ppm: 90%
Zymoseptoria tritici [3]; malonomicin 1000 ppm
  inhibition of growth at 1000 ppm: 100%

— US20260347403A1, “FUNGICIDAL COMPOUND” (priority 2022, published 2026)
